Measurements published in US5578725A, “Delta opioid receptor antagonists” (priority 1995, dated 1996).
pKi: −log10 of the molar value. Several values for one entry are separate records, joined by “and”; a condition that tells them apart may be missing. Equal values may be shown once. Entries after “also recorded” stand apart in the source; their conditions may differ. Where a name gives a salt, the structure may show the parent alone. Read-outs that look alike come from different tables or passages of the source.

Assays:
δ1 [1] = biological target: T1, δ1 (Cavia porcellus, UniProt A0A286XTF2); assay: biochemical; assay type: binding, guinea pig
T1 construct: Guinea Pig Brain Membranes; from tissue; host or cells: guinea pig brain membranes
Experimental: (§1) The opioid receptor affinities of the target compounds were determined on guinea pig membranes employing a modification of the method of Werling et al., J. Pharmacol. Exp. Ther., 233, 722 (1986).

δ1 [2] = assay: biochemical; assay type: binding, guinea pig; conditions: for preference between δ1 and δ2 putative binding sites (in words): [3H]DPDPE vs [3H]DSLET
Experimental: as §1

δ2 [3] = biological target: T2, δ2 (Cavia porcellus, UniProt A0A286XTF2); assay: biochemical; assay type: binding, guinea pig
T2 construct: Guinea Pig Brain Membranes; from tissue; host or cells: guinea pig brain membranes
Experimental: as §1

μ = biological target: T3, μ (Mus musculus, UniProt P42866); assay: Tail-flick assay, antagonism of morphine (μ) antinociception; assay type: in vivo, male Swiss-Webster mice; conditions: ED50 with antagonist/control ED50; morphine s.c.; antagonist 20 pmol/kg i.c.v.
T3 construct: male Swiss-Webster mice; from tissue; host or cells: living mouse (male Swiss-Webster)

κ [4] = biological target: T4, κ (Mus musculus, UniProt P33534); assay type: in vivo, male Swiss-Webster mice; conditions: mouse, in vivo
T4 construct: male Swiss-Webster mice; from tissue; host or cells: living mouse (male Swiss-Webster)

δ2 [5] = biological target: T5, δ2 (Mus musculus, UniProt P32300); assay: Tail-flick assay, antagonism of DSLET (δ2) antinociception; assay type: in vivo, male Swiss-Webster mice; conditions: ED50 with antagonist/control ED50; DSLET i.c.v.; antagonist 20 pmol/kg i.c.v.
T5 construct: male Swiss-Webster mice; from tissue; host or cells: living mouse (male Swiss-Webster)

δ1 [6] = biological target: δ1 (Mus musculus, UniProt P32300); conditions: for ED50 Ratio (95% C.L.): ED50 with antagonist/control ED50, DPDPE i.c.v.
δ opioid receptors = δ opioid receptors (Mus musculus, UniProt P32300); assay: Antagonism of DADLE (δ) in electrically stimulated mouse vas deferens (MVD) preparation; conditions: for Kb: Ke (nM); for IC50 ratio DADLE(δ): 15 min preincubation
μ opioid receptor = μ opioid receptor (Cavia porcellus, UniProt A0ACM8Q262); conditions: GPI, morphine, antagonist 100 nM
κ opioid receptor = κ opioid receptor (Cavia porcellus, UniProt P41144); conditions: GPI, ethylketazocine, antagonist 100 nM
δ2 [7] = assay: biochemical; assay type: binding, guinea pig; conditions: DSLET vs DPDPE
Experimental: as §1

κ [8] = biological target: T6, κ (Cavia porcellus, UniProt P41144); assay: Binding to κ sites, competition with [3H]U69593, guinea pig brain membranes; conditions: geometric mean of three replicates
T6 construct: Guinea Pig Brain Membranes; from tissue; host or cells: guinea pig brain membranes
Experimental: as §1

[9] = MVD, DADLE, Ke = [antagonist]/(IC50 ratio - 1), antagonist 100 nM
[10] = MVD DADLE IC50 ratio / GPI EK IC50 ratio
[11] = MVD DADLE IC50 ratio / GPI morphine IC50 ratio
[12] = using calculated IC50 ratio (238) based on 100 nM of 7

Compound | pKi (δ1 [1]) | Ki Selectivity Ratio δ1/δ2 (δ1 [2]) | Ki Selectivity Ratio κ/δ1 (δ1 [2]) | Ki Selectivity Ratio μ/δ1 (δ1 [2]) | preference between δ1 and δ2 putative binding sites (in words) (δ1 [2]; hydrochloride) | pKi (δ2 [3]) | Kb (δ opioid receptors; [9]) | IC50 Selectivity Ratio δ/κ (δ opioid receptors; [10]) | IC50 Selectivity Ratio δ/μ (δ opioid receptors; [11]) | IC50 ratio DADLE(δ) (δ opioid receptors; MVD, antagonist 100 nM) | IC50 ratio M(μ) (μ opioid receptor) | IC50 ratio EK (κ) (κ opioid receptor) | further results
O=C(O)C[C@H](NC(=O)c1cccc2c3c([nH]c12)[C@@H]1Oc2c(O)ccc4c2[C@@]12CCN(CC1CC1)[C@H](C4)[C@]2(O)C3)C(=O)O [Compound 3, 7'-(Carboxamido-L-aspartate)-17-(cyclopropylmethyl)-6,7-dehydro-3,14-dihydroxy-4,5α-epoxy-6,7,2',3'-indolomorphinan hydrochloride] | 9.85 | 0.3 | 6246 | 2574 | modest preference for [^3 H]DPDPE sites; also recorded: modest preference for δ1 over δ2 sites | 9.39 | 1.1 nM and 1 to 5 nM | 43 | 67 | 89 ± 20 | 1.3 ± 0.5 | 2.1 ± 0.6 | ED50 Ratio (95% C.L.) (μ): 1.0 (0.7-1.5); ED50 Ratio (95% C.L.) (κ [4]): 0.7 (0.4-1.2); ED50 Ratio (95% C.L.) (δ2 [5]): 0.5 (0.3-1.1); ED50 Ratio (95% C.L.) (δ1 [6]; antagonist 0.8 μmol/kg i.v.): 2.3 (1.7-3.1); ED50 Ratio (95% C.L.) (δ1 [6]; antagonist 20 omol/kg (i.c.v.) as printed): 2.6 (2.0-3.6); antagonist potency, central vs peripheral delivery (in words) (δ1 [6]; central (i.c.v.) vs peripheral (i.v.)): highly potent δ opioid antagonists when administered centrally, and many orders of magnitude less potent when delivered by the peripheral route; Dose required to double the ED50 of DPDPE, i.c.v. (δ1 [6]; i.c.v., antagonist dose/(ED50 ratio - 1)): 12.5 pmol/kg; antagonism of DPDPE antinociception (in words) (δ1 [6]; i.v. or i.c.v., mice): selectively antagonized DPDPE; Dose required to double the ED50 of DPDPE, i.v. (δ1 [6]; i.v., antagonist dose/(ED50 ratio - 1)): 0.62 µmol/kg; in vivo δ subtype selectivity (in words) (δ1 [6]; mouse, in vivo): antagonized the δ1 agonist, DPDPE, but not the δ2 agonist, DSLET; Ratio (i.v./i.c.v.) of doses required to produce equivalent antagonism of DPDPE-induced antinociception (δ1 [6]; mouse, in vivo, hydrochloride): 49,600 and > 49,000; i.v./i.c.v. dose ratio relative to that of NTI (times greater) (δ1 [6]; relative to NTI): 7
N=C(N)NCCC[C@H](NC(=O)c1cccc2c3c([nH]c12)[C@@H]1Oc2c(O)ccc4c2[C@@]12CCN(CC1CC1)[C@H](C4)[C@]2(O)C3)C(=O)O [Compound 5, 7'-(Carboxamido-L-arginine)-17-(cyclopropylmethyl)-6,7-dehydro-3,14-dihydroxy-4,5α-epoxy-6,7,2',3'-indolomorphinan hydrochloride] | 9.80 | 1.9 | 1181 | 2096 |  | 10.08 | 3.3 nM and 1 to 5 nM | 27 | 24 | 31 ± 5 | 1.3 ± 0.6 | 1.2 ± 0.5 | 
NCCC[C@H](NC(=O)c1cccc2c3c([nH]c12)[C@@H]1Oc2c(O)ccc4c2[C@@]12CCN(CC1CC1)[C@H](C4)[C@]2(O)C3)C(=O)O [Compound 4, 7'-(Carboxamido L-ornithine)-17-(cyclopropylmethyl)-6,7-dehydro-3,14-dihydroxy-4,5α-epoxy-6,7,2',3'-indolomorphinan hydrochloride] | 9.74 | 11.3 | 320 | 756 |  | 10.82 | 1.8 nM and 1 to 5 nM | 63 | 20 | 58 ± 15 | 3.0 ± 1 | 0.9 ± 0.0 | preference between δ1 and δ2 putative binding sites (in words) (δ1 [2]): greater affinity for δ2 relative to δ1 putative binding sites; factor by which compound competed more effectively with [3H]DSLET than with [3H]DPDPE for δ sites (δ2 [7]): 8-10
O=C(O)c1cccc2c3c([nH]c12)[C@@H]1Oc2c(O)ccc4c2[C@@]12CCN(CC1CC1)[C@H](C4)[C@]2(O)C3 [Compound 7, 7'-Carboxy-17-(cyclopropylmethyl)-6,7-dehydro-3,14-dihydroxy-4,5α-epoxy-6,7,2',3'-indolomorphinan hydrochloride] | 10.89 | 0.8 | 3246 | 1846 |  | 10.80 |  |  |  |  | 2.0 ± 0.3 | 1.0 ± 0.2 | pKi (κ [8]): 7.38; affinity for δ1 sites relative to NTI (times greater) (δ1 [1]; relative to NTI): 6 times; affinity for δ sites (in words) (δ1 [1]; δ1 and δ2 sites, guinea pig membranes): high affinity for δ sites; δ opioid receptor antagonist potency (in words) (δ opioid receptors): δ antagonist potency approaching that of NTI; Kb (δ opioid receptors; MVD, DADLE, concentration of 7 was 10 nM): 0.4 nM; calculated IC50 ratio based on 100 nM of 7 (δ opioid receptors; MVD, DADLE, calculated for 100 nM): 238; IC50 Selectivity Ratio δ/κ (δ opioid receptors; [12]): 231; IC50 Selectivity Ratio δ/μ (δ opioid receptors; [12]): 122
NCCCC[C@H](NC(=O)c1cccc2c3c([nH]c12)[C@@H]1Oc2c(O)ccc4c2[C@@]12CCN(CC1CC1)[C@H](C4)[C@]2(O)C3)C(=O)O [Compound 6, 7'-(N(α)-Carboxamido-L-lysine)-17-(cyclopropylmethyl)-6,7-dehydro-3,14dihydroxy-4,5α-epoxy-6,7,2',3'-indolomorphinan hydrochloride] | 9.52 | 0.4 | 134 | 719 | modest preference for [^3 H]DPDPE sites; also recorded: modest preference for δ1 over δ2 sites | 9.12 | 5.2 nM and 1 to 5 nM | 20 | 20 | 20 ± 4 | 1.0 ± 0.4 | 1.1 ± 0.0 | 
